Results published in US12096769B2, “Mechanism of urea/solid acid interaction under storage conditions and storage stable solid compositions comprising urea and acid” (ECOLAB USA INC., priority 2017, dated 2024).

Assays:
Assay type in all cases: physicochemical
[1] = pH in 17 grains per gallon (gpg) water, Example 5; conditions: Dose 625 ppm
Text: The pH of the urea/citric acid complex was also compared to those of citric acid and monosodium citrate.

[2] = Swelling of tablets made with various acids as the acid filler, Example 2
[3] = Tablet dimensional change at 40° C. and 90% humidity, Example 6; conditions: acid filler of the formulation
Description: A formulation using urea/citric acid complex as the acid filler were compared to those using urea or a mixture of urea and citric acid. In this Example, tablets were made according to the formulations in Table 8, then placed at 40° C. and 90% humidity. Their dimensional changes were measured during two-weeks period of time.

[4] = Block stability in a dispenser (swelling after 1 minute soak in water), Example 7; conditions: soaked in 1 inch of water at 43.3° C. (110° F.) for 1 minute; up to 18 hours
Description: Various blocks made from different formulations were screened for their block stability in a dispenser. During the experiments, the blocks were soaked in 1 inch of water at 43.3° C. (110° F.) for 1 minute, then measured for their swelling as a function of time.

Compound	pH in 17 gpg Water [1]	Swelling of the tablet using the acid as the filler ([2]; 4 Week at 40° C.)	other results
O=C(O)CC(O)(CC(=O)O)C(=O)O [Citric Acid]	4.45		
O=C(O)CC(O)C(=O)O (centres unmarked) [Malic Acid]		~5%	
NC(N)=O.O=C(O)CC(O)(CC(=O)O)C(=O)O [Urea-Citrate, urea-citric acid complex]	4.8		Swelling of the tablet using the acid as the filler ([2]; at 2 weeks, 40° C.): 0.5% at 2 weeks; Storage stability as measured by percentage swelling (in words) [3]: best storage stability; Swelling of the block after soak (in words) [4]: swelling is minimal
O=C(O)CC(=O)O [Malonic Acid]		Weeping	
O=C([O-])CC(O)(CC(=O)O)C(=O)O.[Na+] [Monosodium citrate]	5.6		
CC(O)C(=O)O (centres unmarked) [Lactic Acid]		Weeping	State of the tablet using the acid as the filler ([2]; at 50° C.): melted
O=C(O)/C=C\C(=O)O [Maleic Acid]		Melted	
